Results from publication PMC7806714, “Statins for the prevention of proliferative vitreoretinopathy: cellular responses in cultured cells and clinical statin concentrations in the vitreous” (Scientific Reports, 2021).
Read-outs that look alike come from different tables or passages of the source.

Key:
ARPE-19 cells [1] = test: MTT cell viability assay; assay type: cell-based, human
Method: (§1) Cell viability was assessed by determining the amount of LDH enzyme from culture media using a commercial kit (Promega Corporation, USA) according to the manufacturer’s protocol. This assay provides information about the integrity of the plasma membranes of the cells (high LDH levels meaning cell damage). In addition, the cell viability was examined with MTT assay, as described previously. In viable cells, the mitochondrial succinate dehydrogenase enzyme can metabolize the MTT dye into formazan that absorbs light at the 550 nm wavelength.

IL-6 = test: ELISA of LPS-induced IL-6 release from ARPE-19 cells
[2] = UPLC-MS/MS statin and metabolite concentrations in vitreous of vitrectomy patients on oral statins; assay type: in vivo, human
Method: The study was conducted according to the tenets of the Declaration of Helsinki, and was approved by the Institutional Review Board and Ethical committee of Helsinki University Central Hospital. Twenty patients were enrolled; fifteen with per oral statin treatment and five controls. Signed informed consent was obtained from each participant prior to the vitreous sampling. Confidentiality of the patient records was maintained when the clinical data were entered into a computer-based standardized data entry for analysis. Sixteen patients were being operated due to PDR; of these, five patients had also Tractional Retinal Detachment (TRD); two patients were operated due to RRD, one due to age-related epiretinal fibrosis (pucker), and one due to a macular hole (Supplementary Table S2). […] All vitrectomies were performed by the recruiting vitreoretinal surgeon (SL). […] The samples were collected by manual aspiration into a syringe via the vitrectomy with the cutting function activated. Sample aliquots were transferred into sterile 1.5 mL microcentrifuge tubes (Freemont, CA, USA) and immediately frozen and stored at − 70 °C until laboratory analysis. […] All reference compounds and internal standards were purchased from Toronto Research Chemicals (Toronto, Canada). Samples (100 µl) were divided into two aliquots and kept at − 80 °C prior to analysis. […] Homogenizer blocks were pre-cooled by placing them at − 20 °C. […] Supernatants (120 µl) were pipetted into analytical vials and the concentrations of the statins were measured with Ultra-high Pressure Liquid Chromatography—tandem Mass Spectrometry (UPLC-MS/MS) technique. The same pre-treatment protocol was used to prepare calibration curves and quality control samples but homogenized and filtered porcine vitreous were used as a matrix instead of human vitreous. A minimum of six calibration curve concentrations was used for quantitation of the compounds. Two parallel calibration curve sets included all eleven analytes and four deuterated internal standards. Three quality control samples in three parallel sets were used to validate the method. The linear range varied from approximately 0.004 to 10 ng/mL depending on the analyte. Limit of quantitation was set to the smallest calibration curve point of each drug. Each sample was analysed twice and the average of these values was designated as the concentration of the sample. […] For rosuvastatin, two metabolites were analysed: rosuvastatin lactone and N-desmethyl rosuvastatin lactone. Rosuvastatin D6 was used as an internal standard. The parent drug, its metabolites and internal standard were analysed from the same sample in each case. Liquid chromatography separation was carried out using a Waters Acquity UPLC instrument (Waters, MA, USA) coupled with Waters HSS T3 C18 (2.1 × 100 mm, 1.8 µm) column at 40 °C. The mobile phase consisted of 0.1% formic acid in ultrapure water (A) and 100% of LC–MS grade acetonitrile (B). […] The flow rate was set to 0.3 mL/min and injection volume 1.5 µl. After every three samples, a solvent blank was run to control for any carry over. Mass spectrometry measurements were carried out using a Waters Xevo Triple Quadruple mass spectrometer (TQ-S) equipped with an ESI source. […] The source parameters were as follows: Capillary voltage 2.8 kV, source temperature 150 °C and desolvation temperature 500 °C. Nitrogen (Aga, Helsinki, Finland) was used as a desolvation gas (800 l/h), a cone gas (150 l/h) and a nebulizer gas (7 bar). Argon (Aga, Helsinki, Finland) was used as a collision gas (0.15 mL/min). The Multiple Reaction Monitoring (MRM) mode was used for quantification. Precursor and fragment ions, as well as other optimized parameters are listed in Supplementary Table S3.

MCP-1 = test: ELISA of LPS-induced MCP-1 release from ARPE-19 cells
[3] = plasma, cited from earlier work
[4] = Calculated average steady-state plasma (Eq. 1) and expected vitreal concentrations (Eq. 3); design: species or system human; settings: for Calc. Cv: expected vitreal, Eq. 3; for Css,av: plasma, Eq. 1
Method: The concentrations of statins and their metabolites in the vitreous were analysed (see above) and expressed as ng/mL concentrations. These concentrations were compared to published statin concentrations in plasma. […] Maximum concentrations in plasma and the area under the concentration vs time curve values were collected. The expected average statin concentrations in plasma during multiple dose treatment were calculated for the doses that the patients received in our study (Eq. 1):1 Css,av=AUCsingledose/τ where τ is the time interval between doses. The drug concentrations in plasma (C, Cmax, Css, av) include both unbound (Cu) and protein-bound drug. The values for protein binding were obtained from the summary of drug product characteristics for each statin. The free fraction of statin in plasma was calculated based on Eq. (2):2 fu=CuC
The expected drug concentrations in the patients’ vitreous samples were calculated according to Eq. (3)3 Cv=fu×Css,av
Equation (3) assumes that the vitreal drug concentrations equilibrate with the unbound drug concentrations in plasma, because only free drug is expected to cross the blood-ocular barriers.

[5] = free fraction of drug in plasma; ref summary of product characteristics document; cited from earlier work
ARPE-19 cells [6] = test: LDH release assay (cell membrane integrity); assay type: cell-based, human
Method: as §1

[7] = 48 h exposure prior to LPS, 1.5, 5, 10 µM tested
[8] = oral 20 mg/d, patients' vitreous
[9] = 10 mg/d single oral dose, n=12, China, ref [30]
[10] = 10 mg/d single oral dose, n=18, Germany, ref [31]
[11] = 20 mg/d single oral dose, n=6, UK, ref [32]
[12] = 20 mg/d single oral dose, n=12, Chinese, ref [30]

Question: For `CC(C)c1nc(N(C)S(C)(=O)=O)nc(-c2ccc(F)cc2)c1/C=C/[C@@H](O)C[C@@H](O)CC(=O)O` [Rosuvastatin], which “Cellular toxicity in MTT test” value (ARPE-19 cells [1]; dissolved in DMSO, 24 h or 48 h, with or without LPS) is on record?
Answer: well tolerated

Question: And the “Cell viability in MTT assay” value (ARPE-19 cells [1]; dissolved in water)?
Answer: did not compromise cell viability

Question: And the “LPS-induced release of IL-6” value (IL-6; 5 µM, 24 h prior to LPS (rosuvastatin: DMSO and water))?
Answer: reduced

Question: What about the “LPS-induced release of IL-6” value (IL-6; 10 µM, 24 h prior to LPS (rosuvastatin: DMSO and water)) of the same molecule?
Answer: reduced

Question: What about the “LPS-induced release of IL-6” value (IL-6; [7]) of the same molecule?
Answer: decreasing trends

Question: What about the vitreous concentration range ([2]; 10–20 mg daily, oral) of the same molecule?
Answer: 52 to 316 pg/mL

Question: What about the “Measured Cv Average” value ([2]; oral 10 mg/d, patients' vitreous) of the same molecule?
Answer: 0.055 ng/mL

Question: And the “Measured Cv Range (lower)” value [2, 8]?
Answer: 0.052 ng/mL

Question: What about the “Measured Cv Range (upper)” value [2, 8] of the same molecule?
Answer: 0.316 ng/mL

Question: And the “Concentration in vitreous sample” value ([2]; patient 359, Pucker, diabetes, oral rosuvastatin 20 mg)?
Answer: 0.056 ng/mL

Question: What about the “Concentration in vitreous sample” value ([2]; patient 371, PDR, dose 0* (control without reported statin treatment)) of the same molecule?
Answer: 0.241 ng/mL

Question: What about the “Concentration in vitreous sample” value ([2]; patient 383, PDR, oral rosuvastatin 10 mg) of the same molecule?
Answer: 0.055 ng/mL

Question: And the “Concentration in vitreous sample” value ([2]; patient 397, PDR, oral rosuvastatin 20 mg)?
Answer: 0.168 ng/mL

Question: And the “Concentration in vitreous sample” value ([2]; patient 412, PDR, oral rosuvastatin 20 mg)?
Answer: 0.316 ng/mL

Question: What about the “Concentration in vitreous sample” value ([2]; patient 428, MH, diabetes, not DR, oral rosuvastatin 20 mg) of the same molecule?
Answer: 0.052 ng/mL

Question: And the “LPS-induced release of MCP-1” value (MCP-1; 5 µM, 24 h prior to LPS)?
Answer: decreased

Question: And the “LPS-induced release of MCP-1” value (MCP-1; [7])?
Answer: decreasing trends

Question: What about the AUC0−∞ [3, 9] of the same molecule?
Answer: 103 ng·h/mL

Question: What about the Cmax [3, 9] of the same molecule?
Answer: 10.8 ng/mL

Question: What about the AUC0−∞ [3, 10] of the same molecule?
Answer: 48.4 ng·h/mL

Question: What about the Cmax [3, 10] of the same molecule?
Answer: 4.5 ng/mL

Question: What about the AUC0−∞ [3, 11] of the same molecule?
Answer: 63.1 ng·h/mL

Question: What about the Cmax [3, 11] of the same molecule?
Answer: 6.1 ng/mL

Question: What about the AUC0−∞ [3, 12] of the same molecule?
Answer: 177 ng·h/mL

Question: And the Cmax [3, 12]?
Answer: 19.2 ng/mL

Question: And the “Calc. Cv” value ([4]; 10 mg/d, China study [30])?
Answer: 0.513 ng/mL

Question: What about the “Calc. Cv” value ([4]; 10 mg/d, Germany study [31]) of the same molecule?
Answer: 0.242 ng/mL

Question: And the “Calc. Cv” value ([4]; 20 mg/d, Chinese study [30])?
Answer: 0.883 ng/mL

Question: What about the “Calc. Cv” value ([4]; 20 mg/d, UK study [32]) of the same molecule?
Answer: 0.314 ng/mL

Question: And the “Css,av” value ([4]; 10 mg/d, China study [30])?
Answer: 4.27 ng/mL

Question: And the “Css,av” value ([4]; 10 mg/d, Germany study [31])?
Answer: 2.02 ng/mL

Question: What about the “Css,av” value ([4]; 20 mg/d, Chinese study [30]) of the same molecule?
Answer: 7.36 ng/mL

Question: And the “Css,av” value ([4]; 20 mg/d, UK study [32])?
Answer: 2.62 ng/mL

Question: What about the fu [5] of the same molecule?
Answer: 0.12

Question: What about the “LDH levels / cell membrane integrity” value (ARPE-19 cells [6]; 24 h exposure, with LPS, dissolved in DMSO) of the same molecule?
Answer: more damage to the cell membrane

Question: And the “LDH levels / cell membrane integrity” value (ARPE-19 cells [6]; 24 h exposure, without LPS, dissolved in DMSO)?
Answer: protected the integrity of the cell membrane

Question: And the “LDH levels / cell membrane integrity” value (ARPE-19 cells [6]; 48 h exposure, with LPS, dissolved in DMSO)?
Answer: protect cells from LPS-induced cell membrane rupturing

Question: And the “LDH levels / cell membrane integrity” value (ARPE-19 cells [6]; 48 h exposure, dissolved in DMSO)?
Answer: acute toxic effects on the cell membrane

Question: What about the “LDH levels / cell membrane integrity” value (ARPE-19 cells [6]; dissolved in water, 48 h, with LPS) of the same molecule?
Answer: interfered with the cell membrane integrity

Question: And the LDH levels (ARPE-19 cells [6]; dissolved in water, within 24 h, irrespective of LPS)?
Answer: did not cause any changes in the LDH levels
